How the values were obtained:
[1] = tested on: 18 Ba/F3 EGFR mutant cell lines; assay: Anti-proliferation effect on 18 cell lines (overall result in words); format: cell-based; settings: all 18 Ba/F3 EGFR mutant cell lines of Table 1
Description: The objective of the test example 1 was to evaluate the anti-proliferation effect of Furmonertinib mesilate on 18 cell lines (Ba/F3 EGFR-G719S, Ba/F3 EGFR-S768I, Ba/F3 EGFR-G724S, Ba/F3 EGFR-L718Q, Ba/F3 EGFR-Del19/G724S, Ba/F3 EGFR-E709H, Ba/F3 EGFR-L747S, Ba/F3 EGFR-E709V, Ba/F3 EGFR-L747V, Ba/F3 EGFR-E709-710>D, Ba/F3 EGFR-E709A, Ba/F3 EGFR-Del19/C797S, Ba/F3 EGFR-L858R/C797S, Ba/F3 EGFR-L747S/G719A, Ba/F3-EGFR-L858R-L718V, Ba/F3-EGFR-L858R-L718Q, Ba/F3-EGFR-E709K-G719A, and Ba/F3 EGFR-L861Q) using standard CellTiter-Glo® Luminescent Cell Viability Assay. Further, AZD9291 was used as control compound. […]
The cells during the logarithmic growth period were harvested and counted by using blood counting chamber. The cell viability was over 90% which was determined by trypan blue assay. […]
On Day 3, CellTiter-Glo® reagent (a luciferase ATP bioluminescence detection reagent) was thawed, and then the cell plate was equilibrated at room temperature for approximately 30 minutes. […] The luminescence was recorded by using Multi-mode Microplate Reader. […]

[2] = tested on: EGFR T790M positive advanced non-small cell lung cancer; settings: oral, 80 mg daily dose; patients progressed after prior systematic anti-tumor therapy; cited from earlier work
[3] = Body weight and safety in the Ba/F3 EGFR-G724S xenograft model; format: in vivo, B-NDG mice; settings: 15, 30 and 50 mg/kg, orally, once per day, two weeks
Description: (§1) This study was used for evaluate the anti-tumor efficacy of furmonertinib mesilate in the female (B-NDG) immune deficiency mice bearing tumors of Ba/F3 EGFR-G724S engineered cells.
(§2) Experimental animals: B-NDG mice, female, 6-8 weeks, and weighing 18-20 g.
(§3) Animal modeling and random grouping: Ba/F3 EGFR-G724S cells were cultivated, cells were collected, and re-suspended and counted in serum-free medium, the re-suspended cells with the addition of a matrigel at 1:1 were subcutaneous inoculated at 1×10^6 cells/0.1 mL in B-NDG mice. When the average tumor volume was about 80-120 mm^3, the animals were randomly grouped into four experiment groups according to the tumor size. Each group contained 12 mice. The grouping day was defined as Day 0, i.e., D0.
The experimental scheme: B-NDG mice were subcutaneously inoculated with Ba/F3 EGFR-G724S cells to establish a cell-line-derived xenograft model. […] During the whole experiment, the body weight and the tumor sizes of the mice were measured twice each week, and whether or not the presence of toxic reactions was observed. […]

Ba/F3 EGFR-L861Q = assay: Anti-proliferation, CellTiter-Glo Luminescent Cell Viability Assay; format: cell-based; settings: Mus musculus, BaF3, 72 h, 3 days
Description: (§4) The objective of the test example 1 was to evaluate the anti-proliferation effect of Furmonertinib mesilate on 18 cell lines (Ba/F3 EGFR-G719S, Ba/F3 EGFR-S768I, Ba/F3 EGFR-G724S, Ba/F3 EGFR-L718Q, Ba/F3 EGFR-Del19/G724S, Ba/F3 EGFR-E709H, Ba/F3 EGFR-L747S, Ba/F3 EGFR-E709V, Ba/F3 EGFR-L747V, Ba/F3 EGFR-E709-710>D, Ba/F3 EGFR-E709A, Ba/F3 EGFR-Del19/C797S, Ba/F3 EGFR-L858R/C797S, Ba/F3 EGFR-L747S/G719A, Ba/F3-EGFR-L858R-L718V, Ba/F3-EGFR-L858R-L718Q, Ba/F3-EGFR-E709K-G719A, and Ba/F3 EGFR-L861Q) using standard CellTiter-Glo® Luminescent Cell Viability Assay. Further, AZD9291 was used as control compound.
(§5) Cell culture: Ba/F3 EGFR-G719S, Ba/F3 EGFR-S768I, Ba/F3 EGFR-G724S, Ba/F3 EGFR-L718Q, Ba/F3 EGFR-Del19/G724S, Ba/F3 EGFR-E709H, Ba/F3 EGFR-L747S, Ba/F3 EGFR-E709V, Ba/F3 EGFR-L747V, Ba/F3 EGFR-E709-710>D, Ba/F3 EGFR-E709A, Ba/F3 EGFR-Del19/C797S, Ba/F3 EGFR-L858R/C797S, Ba/F3 EGFR-L747S/G719A, Ba/F3-EGFR-L858R-L718V, Ba/F3-EGFR-L858R-L718Q, Ba/F3-EGFR-E709K-G719A, and Ba/F3 EGFR-L861Q engineered cells were obtained from Kyinno, and maintained at 37° C. with 5% CO2, in the RPMI1640 media supplemented with 10% fetal bovine serum.
(§6) The cells during the logarithmic growth period were harvested and counted by using blood counting chamber. The cell viability was over 90% which was determined by trypan blue assay. The cell concentration was adjusted with culture medium. 90 μl cell suspensions was added to two 96-well plates to obtain the final cell density of 3000 cells per well. The plates were incubated in humidified incubator at 37° C. with 5% CO2.
(§7) The solution of tested compounds (Furmonertinib mesilate and AZD9291) was diluted 1000-fold with DMSO. Then, said DMSO solution was diluted 100-fold with PBS (Phosphate Buffered Saline) to obtain 10× working solution. And 10× reference control solution was prepared by Phosphate Buffered Saline (PBS). 10 μl working solution (10×) was dispensed to each well (triplicate for each concentration). (The top concentration was 3160 nM, 3.16-fold dilution and 10 different concentrations. The final concentration of DMSO in culture medium was 0.1% [v/v]). The plate was cultured for 3 days.
(§8) On Day 3, CellTiter-Glo® reagent (a luciferase ATP bioluminescence detection reagent) was thawed, and then the cell plate was equilibrated at room temperature for approximately 30 minutes. 100 μl CellTiter-Glo® Reagent which was equal to the volume of cell culture medium present in each well was added. The obtained content was mixed for 5 minutes on an orbital shaker to induce cell lysis. The cell plate was incubated at room temperature for 20 minutes to stabilize luminescent signal. The luminescence was recorded by using Multi-mode Microplate Reader.
(§9) [formula] • blank control: medium control; • vehicle control: culture medium with 0.1% DMSO
(§10) The graphical curves were fitted using a nonlinear regression model with a sigmoidal dose response.

Ba/F3 EGFR-L718Q = assay: as above; format: cell-based; settings: Mus musculus, BaF3, 72 h, 3 days
Description: as §4, §5, §6, §7, §8, §9, §10

Ba/F3 EGFR-L747V = assay: as above; format: cell-based; settings: Mus musculus, BaF3, 72 h, 3 days
Description: as §4, §5, §6, §7, §8, §9, §10

Ba/F3-EGFR-L858R-L718Q = assay: as above; format: cell-based; settings: 72 h, 3 days
Description: as §4, §5, §6, §7, §8, §9, §10

Ba/F3 EGFR-E709H = assay: as above; format: cell-based; settings: Mus musculus, BaF3, 72 h, 3 days
Description: as §4, §5, §6, §7, §8, §9, §10

Ba/F3 EGFR-S768I = assay: as above; format: cell-based; settings: Mus musculus, BaF3, 72 h, 3 days
Description: as §4, §5, §6, §7, §8, §9, §10

Ba/F3-EGFR-L858R-L718V = assay: as above; format: cell-based; settings: 72 h, 3 days
Description: as §4, §5, §6, §7, §8, §9, §10

Ba/F3 EGFR-E709A = assay: as above; format: cell-based; settings: Mus musculus, BaF3, 72 h, 3 days
Description: as §4, §5, §6, §7, §8, §9, §10

Ba/F3 EGFR-L858R/C797S = assay: as above; format: cell-based; settings: Mus musculus, BaF3, 72 h, 3 days
Description: as §4, §5, §6, §7, §8, §9, §10

Ba/F3-EGFR-E709K-G719A = assay: as above; format: cell-based; settings: 72 h, 3 days
Description: as §4, §5, §6, §7, §8, §9, §10

Ba/F3 EGFR-L747S/G719A = assay: as above; format: cell-based; settings: Mus musculus, BaF3, 72 h, 3 days
Description: as §4, §5, §6, §7, §8, §9, §10

Ba/F3 EGFR-Del19/C797S = assay: as above; format: cell-based; settings: Mus musculus, BaF3, 72 h, 3 days
Description: as §4, §5, §6, §7, §8, §9, §10

Ba/F3 EGFR-Del19/G724S = assay: as above; format: cell-based; settings: Mus musculus, BaF3, 72 h, 3 days
Description: as §4, §5, §6, §7, §8, §9, §10

Ba/F3 EGFR-G724S [4] = assay: as above; format: cell-based; settings: Mus musculus, BaF3, 72 h, 3 days
Description: as §4, §5, §6, §7, §8, §9, §10

Ba/F3 EGFR-E709-710 > D = assay: as above; format: cell-based; settings: Mus musculus, BaF3, 72 h, 3 days
Description: as §4, §5, §6, §7, §8, §9, §10

Ba/F3 EGFR-G719S = assay: as above; format: cell-based; settings: Mus musculus, BaF3, 72 h, 3 days
Description: as §4, §5, §6, §7, §8, §9, §10

Ba/F3 EGFR-L747S = assay: as above; format: cell-based; settings: Mus musculus, BaF3, 72 h, 3 days
Description: as §4, §5, §6, §7, §8, §9, §10

Ba/F3 EGFR-E709V = assay: as above; format: cell-based; settings: Mus musculus, BaF3, 72 h, 3 days
Description: as §4, §5, §6, §7, §8, §9, §10

Ba/F3 EGFR-G724S [5] = assay: Anti-tumor effect in Ba/F3 EGFR-G724S (KC-1385) cell xenograft model; format: in vivo, B-NDG mice; settings: orally, once per day, two weeks
Description: as §1, §2, §3
The experimental scheme: B-NDG mice were subcutaneously inoculated with Ba/F3 EGFR-G724S cells to establish a cell-line-derived xenograft model. The experiment was divided into 15 mg/kg group of furmonertinib mesilate, 30 mg/kg group of furmonertinib mesilate, 50 mg/kg group of furmonertinib mesilate and vehicle group, wherein each group contained 12 animals, orally administered with the administration volume of 10 uL/g, and the vehicle group was administered with the same amount of vehicle, the administration was carried out once per day and lasted for two weeks. During the whole experiment, the body weight and the tumor sizes of the mice were measured twice each week, and whether or not the presence of toxic reactions was observed.
Tumor Volume (TV) was calculated by: TV=0.5*a*b^2, where a was the long diameter of the tumor and b was the short diameter of the tumor.
The curves for the tumor volume change of four experimental groups were shown in FIG. 1, and the curves for the body weight change of four experimental groups were shown in FIG. 2.

[6] = orally, once per day, 20 mg-240 mg; cited from earlier work

IC50 (Ba/F3 EGFR-L861Q): 3.8 nM
IC50 (Ba/F3 EGFR-L718Q): 501 nM
IC50 (Ba/F3 EGFR-L747V): 31.6 nM
IC50 (Ba/F3-EGFR-L858R-L718Q): 289 nM
IC50 (Ba/F3 EGFR-E709H): 31.3 nM
IC50 (Ba/F3 EGFR-S768I): 21.6 nM
IC50 (Ba/F3-EGFR-L858R-L718V): 23.9 nM
IC50 (Ba/F3 EGFR-E709A): 17.9 nM
IC50 (Ba/F3 EGFR-L858R/C797S): 2210 nM
IC50 (Ba/F3-EGFR-E709K-G719A): 39 nM
IC50 (Ba/F3 EGFR-L747S/G719A): 16.5 nM
IC50 (Ba/F3 EGFR-Del19/C797S): 1220 nM
IC50 (Ba/F3 EGFR-Del19/G724S): 3.84 nM
IC50 (Ba/F3 EGFR-G724S [4]): 21.3 nM
IC50 (Ba/F3 EGFR-E709-710 > D): 89.6 nM
IC50 (Ba/F3 EGFR-G719S): 12.1 nM
IC50 (Ba/F3 EGFR-L747S): 15 nM
IC50 (Ba/F3 EGFR-E709V): 14.3 nM
SMILES: C=CC(=O)Nc1cc(Nc2nccc(-c3cn(C)c4ccccc34)n2)c(OCC(F)(F)F)nc1N(C)CCN(C)C [Furmonertinib mesilate]
anti-proliferation effect [1]: good anti-proliferation effect
anti-tumor effect [2]: relatively good anti-tumor effect
disease progression [2]: can alleviate or stabilize the disease progression
effect on the body weight of mice [3]: little effect on the body weight of mice
safety [3]: good safety
anti-tumor activity (Ba/F3 EGFR-G724S [5]; 15 mg/kg): moderate anti-tumor activity
anti-tumor activity (Ba/F3 EGFR-G724S [5]; 30 mg/kg): extremely significant anti-tumor activity
anti-tumor activity (Ba/F3 EGFR-G724S [5]; 50 mg/kg): extremely significant anti-tumor activity
adverse events of subjects [6]: mild or moderate
dose-related toxic reaction [6]: does not occur
tolerance and safety [6]: the tolerance and the safety are good
